Assay results as given in patent US20220362223A1, “ORAL FORMULATION OF X842” (Cinclus Pharma Holding AB, priority 2019, published 2022).
In brackets after ≈: the same amount, converted by molar mass.

Assays:
gastric acid production [1] = test: Clinical Phase I study of X842: intragastric pH / gastric acid control; assay type: in vivo, human
Procedure: (§1) X842 is a prodrug of linaprazan, which was disclosed in WO 99/55706 and previously studied in Phase I and II studies. […] A clinical Phase I study has shown that administration of a single dose of X842 can maintain the intragastric acidity above pH 4 for 24 hours. X842 is therefore tailored for patients with severe erosive gastroesophageal reflux disease (eGERD).
(§2) It is estimated that this requires a minimal plasma concentration (Cmin) of linaprazan of at least about 240 nmol/L after 22 hours. At such doses, a once daily administration of the formulation would be sufficient. Therefore, in another embodiment, the invention relates to a formulation as disclosed herein, wherein the formulation provides a Cmin of linaprazan in a human of at least about 240 nmol/L after 22 hours following administration of the oral formulation to said human. In a preferred embodiment, the invention relates to a formulation as disclosed herein, wherein a unit dose of the formulation provides a Cmin of linaprazan in a human of at least about 240 nmol/L after 22 hours following administration of the oral formulation to said human.

[2] = Solubility of X842 in water; assay type: physicochemical
From the text: The solubility of X842 is very low. […] This low solubility is problematic for solid oral formulations, and especially for solid immediate release formulations where the active ingredient should dissolve in only a short time period.

clinical = test: clinical; set-up: species or system human; conditions: in vivo
Procedure: as §1, §2

gastric acid production [3] = conditions: Phase I and II studies; cited from earlier work

solubility in water ([2]; pH 6.8) | solubility ([2]; water, simulated gastric fluid, pH 1.0) [µg/mL] | half-life in the body (clinical; human) | metabolism after absorption into the blood stream (clinical) | plasma concentration of X842 (clinical) | concentration at 22 h (clinical; human) [nM] | SMILES | control of gastric acid production (gastric acid production [1]; compared to linaprazan) | time intragastric acidity is maintained above pH 4 (gastric acid production [1]; single dose, clinical Phase I) [hours] | duration of acid inhibition (gastric acid production [3]) | elimination from the body (gastric acid production [3]) | onset of action / effect at first dose (gastric acid production [3]) | tolerability (gastric acid production [3])
practically insoluble | ~113 (≈ 235 µM) | longer half-life | quickly metabolized into linaprazan | only very low and difficult to determine | – | Cc1cccc(C)c1CNc1cc(C(=O)NCCOC(=O)CCCC(=O)O)cn2c(C)c(C)nc12 [Example X842, 5-{2[({8-[(2,6-dimethylbenzyl)amino]-2,3-dimethylimidazo[1,2-a]pyridine-6-yl}carbonyl)-amino]ethoxy}-5-oxopentanoic acid] | total control of the gastric acid production for a longer time | 24 | – | – | – | –
– | – | – | – | – | ≥ 240 | Cc1cccc(C)c1CNc1cc(C(=O)NCCO)cn2c(C)c(C)nc12 [linaprazan] | – | – | too short duration of acid inhibition | quickly eliminated from the body | fast onset of action and full effect at first dose | well tolerated
